Experimental data as given in publication PMC9694494, “Resveratrol/Hydrazone Hybrids: Synthesis and Chemopreventive Activity against Colorectal Cancer Cells” (Pharmaceutics, 2022).
Where two headings read alike, the source gives them in different places.

Assays:
[1] = system: SW620 cells; experiment: SRB cell viability (cytotoxicity), SW620; format: cell-based, human; conditions: for Selectivity Index SI3: CHO-K1/SW620 IC50 ratio; for Selectivity Index SI4: HaCaT/SW620 IC50 ratio; for IC50: Homo sapiens, SW-620, SRB, read-out: IC50 ± SEM SW620
Description: (§1) Human colon cancer cell lines (SW480 and SW620), together with nonmalignant cells (CHO-K1 and HaCaT) were used to study the biological activity. Cells were purchased from the European Collection of Authenticated Cell Cultures (ECACC, UK). Dulbecco’s Modified Eagle Medium (DMEM) containing heat-inactivated (56 °C) horse serum (10%), non-essential amino acids (1%) and antibiotics (penicillin/streptomycin, 1%) (Gibco Invitrogen, Carlsbad, CA, USA) was used to maintain the cells, reducing the horse serum to 3%, and, adding insulin ([…]), transferrin ([…]) and selenium (5 ng/mL) (ITS-defined medium; Gibco, Invitrogen, Carlsbad, CA, USA) for all the experiments.
(§2) The colorimetric test with Sulforhodamine B (SRB) was used to evaluate cell viability. Cell density was adjusted to seed 20.000 cells/well in 96-well tissue culture plates. Cells were first incubated for 24 h and then treated with the synthesized hybrids, the lead compounds (PIH and resveratrol), and the reference drug (5-FU) (concentrations between 0.01 and 200 µM), using DMSO (below 1%) as vehicle control. The optimum conditions were 37 °C and 5% CO2. After the end of each treatment, cold trichloroacetic acid (MERCK, 50% v/v) was added and preserved for one hour at 4 °C, to fix the cells. Then, cell proteins were stained with 0.4% (w/v) SRB (Sigma-Aldrich, St. Louis, MO, USA), and subsequently washed with acetic acid (1%) to remove unbound SRB. After air-drying, protein-bound SRB was solubilized in 10 mM Tris-base before reading the absorbance at 492 nm in a microplate reader (Mindray MR-96A). All experiments were performed at least three times.

[2] = system: SW480 cells; experiment: SRB cell viability (cytotoxicity), SW480; format: cell-based, human; conditions: for Selectivity Index SI1: CHO-K1/SW480 IC50 ratio; for Selectivity Index SI2: HaCaT/SW480 IC50 ratio; for IC50: Homo sapiens, SW480, SRB, read-out: IC50 ± SEM SW480
Description: as §1, §2

[3] = system: HCT 116 cell line; conditions: read-out: IC50 antiproliferative activity; cited from earlier work
[4] = system: HaCaT cells; experiment: SRB cell viability (cytotoxicity), HaCaT; format: cell-based; conditions: Homo sapiens, HaCaT nonmalignant cells, read-out: IC50 ± SEM HACAT
Description: as §1, §2

[5] = system: CHO-K1 cells; experiment: SRB cell viability (cytotoxicity), CHO-K1; format: cell-based; conditions: Cricetulus griseus, CHO-K1 nonmalignant cells, read-out: IC50 ± SEM CHO
Description: as §1, §2

[6] = system: EC109 cells; set-up: method as in PMID 29475156; conditions: EC109 esophageal carcinoma cells; read-out: IC50 antiproliferative activity; cited from earlier work
[7] = system: EC9706 cells; set-up: method as in PMID 29475156; conditions: EC9706 esophageal carcinoma cells; read-out: IC50 antiproliferative activity; cited from earlier work

| melting point [°C] | SMILES | Selectivity Index SI3 ([1]; 24 H) | Selectivity Index SI3 ([1]; 48 H) | Selectivity Index SI4 ([1]; 48 H) | Selectivity Index SI1 ([2]; 24 H) | Selectivity Index SI1 ([2]; 48 H) | Selectivity Index SI2 ([2]; 48 H) | IC50 [3] [µM] | IC50 ([4]; 24 H) [µM] | Selectivity Index SI4 ([1]; 24 H) | IC50 ([1]; 24 H) [µM] | IC50 ([1]; 48 H) [µM] | IC50 ([5]; 24 H) [µM] | IC50 ([5]; 48 H) [µM] | Selectivity Index SI2 ([2]; 24 H) | IC50 ([2]; 24 H) [µM] | IC50 ([2]; 48 H) [µM] | IC50 ([4]; 48 H) [µM] | IC50 [6] [µM] | IC50 [7] [µM] |
| --- | --- | --- | --- | --- | --- | --- | --- | --- | --- | --- | --- | --- | --- | --- | --- | --- | --- | --- | --- | --- |
|  | O=c1[nH]cc(F)c(=O)[nH]1 [5-FU, 5-fluorouracil, reference compound] | 0.59 | 0.96 | 0.66 | 0.35 | 0.99 | 0.68 | 5 | > 1000 |  |  |  |  |  |  |  |  |  |  |  |
| 248 to 250 | COc1cccc(C(=O)N/N=C/c2c(O)cc(O)cc2/C=C/c2ccc(O)cc2)c1 [6a, N′-((E)-2,4-dihydroxy-6-((E)-4-hydroxystyryl)benzylidene)-3-methoxybenzohydrazide] | 0.16 | 0.31 | 0.05 | 0.86 | 0.52 | 0.09 |  | 47.5 ± 1.15 | 0.28 | 172 ± 9 | 41.5 ± 1.2 | 28.4 ± 1.48 | 13 ± 1.3 | 1.44 | 33 ± 2.13 | 24.9 ± 2.8 | 2.2 ± 0.2 |  |  |
|  | COc1ccc(C(=O)N/N=C/c2c(O)cc(O)cc2/C=C/c2ccc(O)cc2)cc1 [6b, N′-((E)-2,4-dihydroxy-6-((E)-4-hydroxystyryl)benzylidene)-4-methoxybenzohydrazide] |  |  |  |  |  |  |  | 36.9 ± 3.53 |  | 160 ± 9.4 | 37.6 ± 2.9 | 23.4 ± 1.83 | 14.4 ± 1.7 |  | 36.1 ± 1.97 | 11.3 ± 2.3 | 13.9 ± 0.7 |  |  |
|  | O=C(N/N=C/c1c(O)cc(O)cc1/C=C/c1ccc(O)cc1)c1ccc(F)cc1 [6c, N′-((E)-2,4-dihydroxy-6-((E)-4-hydroxystyryl)benzylidene)-4-fluorobenzohydrazide] | 0.39 | 0.96 |  | 0.77 | 1.11 | 1.35 |  | 32.8 ± 1.33 | 0.57 | 57.7 ± 3.6 | 12.5 ± 1 | 22.6 ± 2.38 | 12 ± 1.6 | 1.12 | 29.2 ± 3.55 | 10.8 ± 2 | 14.6 ± 0.8 |  |  |
|  | COc1cccc(C(=O)N/N=C/c2c(O)cc(O)cc2/C=C/c2ccc(O)cc2)c1OC [6d, N′-((E)-2,4-dihydroxy-6-((E)-4-hydroxystyryl)benzylidene)-2,3-dimethoxybenzohydrazide] |  |  |  |  |  |  |  | 49.7 ± 1.96 |  | 171 ± 8.7 | 49.9 ± 2.1 | 35.5 ± 2.36 | 22.4 ± 2.7 |  | 34.8 ± 3.31 | 20.5 ± 1.9 | 2.95 ± 0.2 |  |  |
| 260 to 262 | COc1ccc(OC)c(C(=O)N/N=C/c2c(O)cc(O)cc2/C=C/c2ccc(O)cc2)c1 [6f, N′-((E)-2,4-dihydroxy-6-((E)-4-hydroxystyryl)benzylidene)-2,5-dimethoxybenzohydrazide] | 0.11 | 0.16 | 0.15 | 0.97 | 1.30 | 1.22 |  | 42.2 ± 5.9 | 0.21 | > 200 | 99.4 ± 6.9 | 22.7 ± 2.25 | 15.9 ± 1.6 | 1.80 | 23.4 ± 1.31 | 12.2 ± 1.2 | 14.9 ± 1.3 |  |  |
|  | COc1ccc(C(=O)N/N=C/c2c(O)cc(O)cc2/C=C/c2ccc(O)cc2)cc1OC [6g, N′-((E)-2,4-dihydroxy-6-((E)-4-hydroxystyryl)benzylidene)-3,4-dimethoxybenzohydrazide] |  |  |  |  |  |  |  | 63.7 ± 5.27 |  | 191 ± 13 | 40.3 ± 2.7 | 33.2 ± 1.99 | 17.2 ± 2 |  | 37 ± 2.24 | 20.2 ± 2.7 | 17.7 ± 0.5 |  |  |
|  | COc1cc(OC)cc(C(=O)N/N=C/c2c(O)cc(O)cc2/C=C/c2ccc(O)cc2)c1 [6h, N′-((E)-2,4-dihydroxy-6-((E)-4-hydroxystyryl)benzylidene)-3,5-dimethoxybenzohydrazide] |  |  |  |  |  |  |  | 43.2 ± 4.02 |  | 126 ± 20.9 | 26 ± 3.2 | 22.8 ± 1.31 | 14 ± 1.2 |  | 29.1 ± 1.31 | 7.2 ± 2 | 4.5 ± 0.6 |  |  |
|  | O=C(N/N=C/c1ccccc1OCc1ccccc1)c1ccncc1 [C] |  |  |  |  |  |  | 3.1 |  |  |  |  |  |  |  |  |  |  |  |  |
|  | O=C(N/N=C/c1c(O)ccc2ccccc12)c1ccncc1 [D] |  |  |  |  |  |  | 0.29 |  |  |  |  |  |  |  |  |  |  |  |  |
|  | CCOc1cccc(/C=N/NC(=O)c2cccc(S(=O)(=O)N3CCOCC3)c2)c1O [I] |  |  |  |  |  |  |  |  |  |  |  |  |  |  |  |  |  | 2.79 ± 0.45 | 1.09 ± 0.03 |
|  | Cc1ncc(CO)c(/C=N/NC(=O)c2ccncc2)c1O [PIH, pyridoxal isonicotinoyl hydrazone, reference compound] | 1.53 | 0.63 | 0.85 | 1.10 | 0.67 | 0.90 |  | > 200 | 1.19 | > 200 | 119 ± 7 | > 200 | 75.3 ± 6.4 | 0.86 | > 200 | 112 ± 5.9 | 101 ± 10.8 |  |  |
|  | Oc1ccc(/C=C/c2cc(O)cc(O)c2)cc1 [RESV, resveratrol] | 0.22 | 0.45 | 0.14 | 0.77 | 0.52 | 0.16 |  | > 200 | 0.42 | > 200 |  |  | 64 ± 8.9 | 1.49 |  |  | 20.2 ± 2.7 |  |  |
| 242 to 244 | NC(=S)N/N=C/c1c(O)cc(O)cc1/C=C/c1ccc(O)cc1 [compound 8, 2-((E)-2,4-dihydroxy-6-((E)-4-hydroxystyryl)benzylidene)hydrazine-1-carbothioamide] | 0.41 | 0.57 | 0.50 | 1.02 | 0.89 | 0.77 |  | 60.1 ± 3.99 | 0.59 | 102 ± 3.5 | 64.1 ± 2.9 | 41.9 ± 2.83 | 36.7 ± 3.8 | 1.47 | 41 ± 3.93 | 41.2 ± 2.3 | 31.8 ± 1.4 |  |  |
